Columns and labels:
Format in all cases: cell-based
tumor cell lines = test: MTT cell viability assay, number of responding cell lines (Example 1); details: 2-DG 1 mM alone; 48 h
Method: (§1) The MTT (MethylThiazol Tetrazolium) assay was used to determine cell viability. The MTT assay is a colorimetric method for measuring the activity of cellular enzymes that reduce the tetrazolium dye, MTT, to its insoluble formazan, giving a purple color. This method was used in the present experiments to reflect the number of viable cells present and to measure cytotoxicity (loss of viable cells).
Cells were plated in flat-bottom 96-well plates at a cell number of 10,000 in 100 p of medium per well. RPMI 1640 (Roswell Park Memorial Institute, Gibco, City, State) supplemented with fetal bovine serum (10%) and penicillin/streptomycin (1%) medium was used for cell culturing and plating. After plating, cells were incubated at 37° C. in an incubator at 5% CO2 concentration for 24 hours before the beginning of treatment. […]
To determine the amount of viable cells after the treatment, the absorption was measured at a wave length of 485 nm with the help of an ELISA reader device (TECAN GENios, Austria). […] Mean values and standard deviations were calculated from the measured values after background subtraction. As background, absorption was measured in wells containing medium alone.
2-DG treatment at a concentration of 1 mM induced a significant response (reduction of viability to less than 80% of the untreated cells) in 9 out of 15 cell lines analyzed.

in vitro = details: human
Method: (§2) FIG. 3: Cell viability of […] cells treated with 2DG (1 mM or 4 mM) and of PBMCs treated with 2DG (1 mM) alone or in combination with Rocaglamide (0.1 μM, 0.025 μM, 0.01 μM).

U138MG cells = test: Cell viability with 2DG alone or combined with Rocaglamide (Example 4, FIG. 3); details: Mus musculus, U138-MG, 4 mM 2DG alone
Method: as §2
In order to evaluate the potential of Rocaglamide to reduce the dose of 2DG while at the same time maintaining its antitumoral effect, combinations of different doses of 2DG with Rocaglamide were evaluated in U138MG cells ([…]). The cell-killing effect of the combination of Rocaglamide and 2DG was then compared with the effect of 2DG alone.

K073 = test: MTT cell viability assay, tumor cell line (Example 1); details: 48 h, relative to untreated cells, read-out: Cell viability after treatment
Method: as §1
(§3) Cells were plated in flat-bottom 96-well plates at a cell number of 10,000 in 100 p of medium per well. RPMI 1640 (Roswell Park Memorial Institute, Gibco, City, State) supplemented with fetal bovine serum (10%) and penicillin/streptomycin (1%) medium was used for cell culturing and plating. After plating, cells were incubated at 37° C. in an incubator at 5% CO2 concentration for 24 hours before the beginning of treatment. After that, when cells became adherent, the medium was removed and 2-DG and rocaglamide were added to the cells at a concentration of 1 mM and 0.1 μM, respectively. After 48 hours of incubation, 20 μl of MTT reagent was added to each well. Cells were incubated for 1 hour at 37° C. before colorimetric assessment
(§4) To determine the amount of viable cells after the treatment, the absorption was measured at a wave length of 485 nm with the help of an ELISA reader device (TECAN GENios, Austria). All measurements were carried out in quadruplicate. Mean values and standard deviations were calculated from the measured values after background subtraction. As background, absorption was measured in wells containing medium alone.

SW480 = test: as above; details: Homo sapiens, 48 h, relative to untreated cells, read-out: Cell viability after treatment
Method: as §1, §3, §4

GL261 = test: as above; details: Mus musculus, 48 h, relative to untreated cells, read-out: Cell viability after treatment
Method: as §1, §3, §4

NCH82 = test: as above; details: Homo sapiens, 48 h, relative to untreated cells, read-out: Cell viability after treatment
Method: as §1, §3, §4

NCH89 = test: as above; details: Homo sapiens, 48 h, relative to untreated cells, read-out: Cell viability after treatment
Method: as §1, §3, §4

HCT116 = test: as above; details: Homo sapiens, 48 h, relative to untreated cells, read-out: Cell viability after treatment
Method: as §1, §3, §4

LNT229 = test: as above; details: 48 h, relative to untreated cells, read-out: Cell viability after treatment
Method: as §1, §3, §4

RKO = test: as above; details: Homo sapiens, 48 h, relative to untreated cells, read-out: Cell viability after treatment
Method: as §1, §3, §4

C3 = test: as above; details: 48 h, relative to untreated cells, read-out: Cell viability after treatment
Method: as §1, §3, §4

U373 = test: as above; details: Homo sapiens, U373 MG, 48 h, relative to untreated cells, read-out: Cell viability after treatment
Method: as §1, §3, §4

SMA560 = test: as above; details: Mus musculus, 48 h, relative to untreated cells, read-out: Cell viability after treatment
Method: as §1, §3, §4

HT29 = test: as above; details: Homo sapiens, 48 h, relative to untreated cells, read-out: Cell viability after treatment
Method: as §1, §3, §4

H146 = test: as above; details: Homo sapiens, 48 h, relative to untreated cells, read-out: Cell viability after treatment
Method: as §1, §3, §4

HT29 cells = test: MTT assay, IC50 of flavaglines with and without 2DG (Example 2); details: HT29 (FIG. 1B); flavagline 10-100 nM with 1 mM 2DG versus flavagline alone; 48 h
Excerpt: (§5) FIG. 1: Determination of IC50 of Rocaglamide and FL3. Treatment schemes are illustrated by different line patterns explained on the right side of each graphic. Solid lines with squares represent treatment with Rocaglamide, dotted lines with circles represent treatment with Rocaglamide and 2DG in combination, dotted lines with triangles represent treatment with FL3, and dotted lines with rhombus represent treatment with FL3 and 2DG in combination. X axis represents treatment doses of flavaglines (Rocaglamide or FL3), y axis represents relative cell viability (determined by MT assay) in %; cells not treated with flavaglines are used as a reference (corresponding to 100% viability). A. HCT116 cells. B. HT29 cells. C: normal human PBMCs.
(§6) The MTT (MethylThiazol Tetrazolium) assay was the same as in Example 1. Colorectal cancer cells (HCT116 and HT29) as well as normal human PBMCs were plated in flat-bottom 96-well plates at a cell number of 10,000 and 100,000, respectively, in 100 μl of medium per well. […] (Roswell Park Memorial Institute, Gibco, Paisley, UK) supplemented with 10% fetal bovine serum and 1% penicillin/streptomycin (Gibco, N.Y., USA) medium was used for cell culturing and plating of tumor cells. Medium for PBMCs consisting of Iscove's modified DMEM (IMDM) supplemented by 10% human AB serum, 1% L-glutamin and 0,05% gentamycin was used for plating PBMCs. After plating, rocaglamide and FL3 were applied at five increasing concentrations (10, 25, 50, 75 and 100 nM) as single substances and in combination with 1 mM 2DG. Cells were then incubated with drugs in a CO2 chamber at 5% CO2 concentration (Memmert Incubator, Büchenbach, Germany) for 48 hours. Afterwards, 20 μl of MTT reagent (Promega, Madison, Wis., USA) were added to each well. Cells were incubated for 1 hour at 37° C. as above. To determine the amount of viable cells after the treatment the absorption was measured at a wave length of 485 nm in ELISA reader device (TECAN GENios, Salzburg, Austria). All measurements were carried out in quadruplicates.
(§7) Mean values and standard deviations were calculated from the measured values after background subtraction. As background, absorption was measured in wells containing only medium.

HCT116 cells = test: as above; details: HCT116 (FIG. 1A); flavagline 10-100 nM with 1 mM 2DG versus flavagline alone; 48 h
Excerpt: as §5, §6, §7

normal human PBMCs = test: as above; details: normal human PBMCs (FIG. 1C); flavagline 10-100 nM with 1 mM 2DG versus flavagline alone; 48 h
Excerpt: as §5, §6, §7

Question: With `OC[C@H]1OC(O)C[C@@H](O)[C@@H]1O` (stereo partly drawn) [2DG, (4R,5S,6R)-6-(hydroxymethyl)oxane-2,4,5-triol] as the molecule, how does the “cell lines with significant response (reduction of viability to less than 80% of the untreated cells)” value (tumor cell lines) read?
Answer: Its value is 9 out of 15.

Question: What about the viability at 48 h, 1 mM (in vitro) of the same molecule?
Answer: Its viability at 48 h, 1 mM is 81.7%.

Question: What about the viability at 4000 µM (U138MG cells; U136MG cells, read-out: cell viability compared to the untreated control) of the same molecule?
Answer: Its viability at 4000 µM is 46%.

Question: What about the cytotoxicity at 4000 µM (U138MG cells; U138MG cells, read-out: reduction of cell viability compared to the untreated control) of the same molecule?
Answer: The cytotoxicity at 4000 µM was 54%.

Question: And the viability at 1000 µM (K073; 2DG 1 mM alone)?
Answer: The viability at 1000 µM was 89.6%.

Question: And the viability at 1000 µM (SW480; 2DG 1 mM alone)?
Answer: Its viability at 1000 µM is 70.8%.

Question: What about the viability at 1000 µM (GL261; 2DG 1 mM alone) of the same molecule?
Answer: Its viability at 1000 µM is 63.8%.

Question: And the viability at 1000 µM (NCH82; 2DG 1 mM alone)?
Answer: Its viability at 1000 µM is 68.3%.

Question: What about the viability at 1000 µM (NCH89; 2DG 1 mM alone) of the same molecule?
Answer: Its viability at 1000 µM is 83.7%.

Question: And the viability at 1000 µM (HCT116; HCT-116, 2DG 1 mM alone)?
Answer: The viability at 1000 µM was 82%.

Question: What about the viability at 1000 µM (LNT229; 2DG 1 mM alone) of the same molecule?
Answer: Its viability at 1000 µM is 113%.

Question: And the viability at 1000 µM (RKO; 2DG 1 mM alone)?
Answer: The viability at 1000 µM was 118%.

Question: And the viability at 1000 µM (C3; 2DG 1 mM alone)?
Answer: The viability at 1000 µM was 103%.

Question: And the viability at 1000 µM (U373; 2DG 1 mM alone)?
Answer: The viability at 1000 µM was 95.6%.

Question: And the viability at 1000 µM (SMA560; SMA-560, 2DG 1 mM alone)?
Answer: Its viability at 1000 µM is 102%.

Question: What about the viability at 1000 µM (HT29; HT-29, 2DG 1 mM alone) of the same molecule?
Answer: The viability at 1000 µM was 87.5%.

Question: And the viability at 1000 µM (H146; NCI-H146, 2DG 1 mM alone)?
Answer: The viability at 1000 µM was 90.5%.

Question: With `COc1cc(OC)c2c(c1)O[C@@]1(c3ccc(Br)cc3)[C@H](c3ccccc3)C[C@@H](O)[C@@]21O` [FL3, (1R,3S,3aR,8bS)-3a-(4-Bromophenyl)-6,8-dimethoxy-3-phenyl-2,3,3a,8b-tetrahydro-1H-cyclopenta[b]benzofuran-1,8b-diol] as the molecule, how does the “change of IC50 of the flavagline in combination with 2DG” value (HT29 cells) read?
Answer: The value was “substantially reduced”.

Question: What about the “change of IC50 of the flavagline in combination with 2DG” value (HCT116 cells) of the same molecule?
Answer: Its value is “substantially reduced”.

Question: And the “change of IC50 of the flavagline in the presence of 2DG” value (normal human PBMCs)?
Answer: Its value is “increased”.

Question: Which results are given for `COc1ccc([C@@]23Oc4cc(OC)cc(OC)c4[C@]2(O)[C@H](O)[C@H](C(=O)N(C)C)[C@H]3c2ccccc2)cc1` [Rocaglamide, (1R,2R,3S,3aR,8bS)-1,8b-dihydroxy-6,8-dimethoxy-3a-(4-methoxyphenyl)-N,N-dimethyl-3-phenyl-2,3-dihydro-1H-cyclopenta[b][1]benzofuran-2-carboxamide]?
Answer: viability at 0.1 µM (K073; rocaglamide 0.1 μM alone): 35.9%; viability at 0.1 µM (SW480; rocaglamide 0.1 μM alone): 59.5%; viability at 0.1 µM (GL261; rocaglamide 0.1 μM alone): 58.2%; viability at 0.1 µM (NCH82; rocaglamide 0.1 μM alone): 63.2%; viability at 0.1 µM (NCH89; rocaglamide 0.1 μM alone): 56.6%; viability at 0.1 µM (HCT116; HCT-116, rocaglamide 0.1 μM alone): 14.8%; viability at 0.1 µM (LNT229; rocaglamide 0.1 μM alone): 100%; viability at 0.1 µM (RKO; rocaglamide 0.1 μM alone): 42.9%; viability at 0.1 µM (C3; rocaglamide 0.1 μM alone): 45.3%; viability at 0.1 µM (U373; rocaglamide 0.1 μM alone): 76.4%; viability at 0.1 µM (SMA560; SMA-560, rocaglamide 0.1 μM alone): 92.8%; viability at 0.1 µM (HT29; HT-29, rocaglamide 0.1 μM alone): 52.3%; viability at 0.1 µM (H146; NCI-H146, rocaglamide 0.1 μM alone): 47.3%; change of IC50 of the flavagline in combination with 2DG (HT29 cells): substantially reduced; change of IC50 of the flavagline in combination with 2DG (HCT116 cells): substantially reduced; change of IC50 of the flavagline in the presence of 2DG (normal human PBMCs): increased

From patent US20180169123A1, “COMBINATION THERAPY WITH A FLAVAGLINE AND 2-DEOXYGLUCOSE” (Ruprecht-Karls-Universitat Heidelberg, priority 2015, published 2018)
